These results are taken from patent EP0328089A2, “Reduced size LHRH analogs” (ABBOTT LABORATORIES, priority 1988, dated 1989).

Structures are written as SMILES. Where a SMILES comes first, the peptide text is derived from it. [ ]: non-standard residue; d: D form. The star is where a group is joined. Propanoyl(3-(1-naphthyl)) = O=C(CCc1cccc2ccccc12)*; Propanoyl(3-indol-3-yl) = O=C(CCc1c[nH]c2ccccc12)*; d2Nal = N[C@H](Cc1ccc2ccccc2c1)C(=O)O

For the assay, the system named is plasma LH levels. Put plainly: Plasma LH level during and after i.v. infusion (Figures 1 and 2). It is filed as in vivo. To be noted: mature castrate male rats, plot only, compound characterised in words. From the text: Figures 1 and 2 illustrate the effect on plasma LH levels in mature castrate male rats during and after i.v. infusion of compounds 20 and 24, respectively.

Consider `CCNC(=O)[C@@H]1CCCN1C(=O)[C@H](CCCNC(=N)N)NC(=O)[C@H](CC(C)C)NC(=O)[C@@H](Cc1ccc2ccccc2c1)NC(=O)[C@H](Cc1ccc(O)cc1)NC(=O)[C@H](CO)NC(=O)CCc1cccc2ccccc12` [compound 20] ({Propanoyl(3-(1-naphthyl))}-SY[d2Nal]LRP-NHEt), for which the “effect on plasma LH levels” value is listed as “LHRH antagonist”. Next, `CCNC(=O)[C@@H]1CCCN1C(=O)[C@H](CCCNC(=N)N)NC(=O)[C@H](CC(C)C)NC(=O)[C@@H](Cc1c[nH]c2ccccc12)NC(=O)[C@H](Cc1ccc(O)cc1)NC(=O)[C@H](CO)NC(=O)CCc1c[nH]c2ccccc12` [compound 24, (4-9)[N-(3-(3-Indole)propionyl)-Ser⁴-D-Trp⁶-Pro⁹-NHEt] LHRH] ({Propanoyl(3-indol-3-yl)}-SY[dW]LRP-NHEt): “LHRH agonist”.
